Reference: patent US6737383B1, “Herbicidal oxadiazolidines” (priority 1999, dated 2004)

Assays:
purple nutsedge = experiment: Test B pre/postemergence purple nutsedge; format: in vivo, Cyperus rotundus
How it was run: (§1)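 Test chemicals in a non-phytotoxic solvent mixture with surfactant were sprayed preemergence onto planted seeds and postemergence onto plants 2 to 18 cm tall (1- to 4-leaf stage). After twelve to sixteen days in a greenhouse, injury was visually rated against untreated controls from 0 (no effect) to 10 (complete control).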

morningglory = experiment: Test B pre/postemergence morningglory; format: in vivo, Ipomoea hederacea
How it was run: as §1

corn = experiment: Test B pre/postemergence corn; format: in vivo, Zea mays
How it was run: as §1

giant foxtail = experiment: Test B pre/postemergence giant foxtail; format: in vivo, Setaria faberii
How it was run: as §1

rice = experiment: Test B flood test rice; format: in vivo, Oryza sativa
How it was run: (§2)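 Each value is a visual injury score relative to controls, with 10 meaning complete control and 0 no effect. Evaluation took place twelve to sixteen days after the 2-leaf-stage plants were treated and kept in the greenhouse.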

wheat = experiment: Test B pre/postemergence wheat; format: in vivo, Triticum aestivum
How it was run: as §1

crabgrass = experiment: Test B pre/postemergence crabgrass; format: in vivo, Digitaria sanguinalis
How it was run: as §1

pigweed = experiment: Test B pre/postemergence pigweed; format: in vivo, Amaranthus retroflexus
How it was run: as §1

bamyardgrass = experiment: Test B flood test barnyardgrass; format: in vivo, Echinochloa crus-galli
How it was run: as §2

soybean = experiment: Test B pre/postemergence soybean; format: in vivo, Glycine max
How it was run: as §1

rape = experiment: Test B pre/postemergence rape; format: in vivo, Brassica napus
How it was run: as §1

duck salad = experiment: Test B flood test duck salad; format: in vivo, Heteranthera limosa
How it was run: as §2

wild oat = experiment: Test B pre/postemergence wild oat; format: in vivo, Avena fatua
How it was run: as §1

sugar beet = experiment: Test B pre/postemergence sugar beet; format: in vivo, Beta vulgaris
How it was run: as §1

cocklebur = experiment: Test B pre/postemergence cocklebur; format: in vivo, Xanthium strumarium
How it was run: as §1

velvetleaf = experiment: Test B pre/postemergence velvetleaf; format: in vivo, Abutilon theophrasti
How it was run: as §1

[1] = Preemergence, Rate 62 g/ha, scale of 0 to 10 where 0 is no effect and 10 is complete control
[2] = Preemergence, Rate 125 g/ha, 0 is no effect, 10 is complete control
[3] = Preemergence, Rate 250 g/ha, scale 0 to 10, 0 is no effect, 10 is complete control
[4] = Preemergence, Rate 500 g/ha, scale of 0 to 10 where 0 is no effect and 10 is complete control
[5] = Rate 62 g/ha, Postemergence, scale of 0 to 10 where 0 is no effect and 10 is complete control
[6] = Rate 125 g/ha, Postemergence, scale 0 to 10
[7] = Rate 500 g/ha, Postemergence, scale 0 to 10
[8] = Rate 62 g/ha, headed Pre-emergence (flood test species), scale 0 to 10 (0 no effect, 10 complete control)
[9] = Rate 125 g/ha, Pre-emergence, flood test species, scale 0 to 10 where 0 is no effect and 10 is complete control
[10] = Rate 250 g/ha, Pre-emergence, flood-test species, scale 0 to 10, 0 is no effect, 10 is complete control
[11] = Rate 500 g/ha, Pre-emergence, flood test species, scale 0 to 10 (0 no effect, 10 complete control)

## CC(C)N(C(=O)n1oc(=O)n(Cc2ccco2)c1=O)c1ccc(F)cc1 [Compound 207]
Purple nutsedge; [1]
  Nutsedge plant response rating: 0
Purple nutsedge; [2]
  Nutsedge plant response rating (0 to 10 scale): 0
Purple nutsedge; [3]
  Nutsedge plant response rating: 0
Purple nutsedge; [4]
  Plant response rating, Nutsedge: 0
Purple nutsedge; [5]
  Nutsedge plant response rating: 0
Purple nutsedge; [6]
  Nutsedge plant response rating: 0
Purple nutsedge; Rate 250 g/ha, Postemergence
  Plant response rating (0 to 10; 0 is no effect, 10 is complete control), Nutsedge: 0
Purple nutsedge; [7]
  Nutsedge plant response rating: 0
morningglory; [1]
  Morningglory plant response rating: 0
morningglory; [2]
  Morningglory plant response rating (0 to 10 scale): 0
morningglory; [3]
  Morningglory plant response rating: 0
morningglory; [4]
  Plant response rating, Morningglory: 0
morningglory; [5]
  Morningglory plant response rating: 0
morningglory; [6]
  Morningglory plant response rating: 2
morningglory; Rate 250 g/ha, Postemergence
  Plant response rating (0 to 10; 0 is no effect, 10 is complete control), Morningglory: 2
morningglory; [7]
  Morningglory plant response rating: 3
corn; [1]
  Corn plant response rating: 0
corn; [2]
  Corn plant response rating (0 to 10 scale): 0
corn; [3]
  Corn plant response rating: 0
corn; [4]
  Plant response rating, Corn: 0
corn; [5]
  Corn plant response rating: 0
corn; [6]
  Corn plant response rating: 0
corn; Rate 250 g/ha, Postemergence
  Plant response rating (0 to 10; 0 is no effect, 10 is complete control), Corn: 0
corn; [7]
  Corn plant response rating: 0
Giant foxtail; [1]
  Giant foxtail plant response rating: 3
Giant foxtail; [2]
  Giant foxtail plant response rating (0 to 10 scale): 6
Giant foxtail; [3]
  Giant foxtail plant response rating: 9
Giant foxtail; [4]
  Plant response rating, Giant foxtail: 10
Giant foxtail; [5]
  Giant foxtail plant response rating: 0
Giant foxtail; [6]
  Giant foxtail plant response rating: 0
Giant foxtail; Rate 250 g/ha, Postemergence
  Plant response rating (0 to 10; 0 is no effect, 10 is complete control), Giant foxtail: 1
Giant foxtail; [7]
  Giant foxtail plant response rating: 2
rice; [8]
  Rice plant response rating: 0
rice; [9]
  Rice plant response rating: 0
rice; [10]
  Rice plant response rating: 0
rice; [11]
  Rice plant response rating: 0
wheat; [1]
  Wheat plant response rating: 0
wheat; [3]
  Wheat plant response rating: 0
wheat; [4]
  Plant response rating, Wheat: 0
wheat; [5]
  Wheat plant response rating: 0
wheat; [6]
  Wheat plant response rating: 0
wheat; Rate 250 g/ha, Postemergence
  Plant response rating (0 to 10; 0 is no effect, 10 is complete control), Wheat: 0
crabgrass; [1]
  Crabgrass plant response rating: 0
crabgrass; [2]
  Crabgrass plant response rating (0 to 10 scale): 0
crabgrass; [3]
  Crabgrass plant response rating: 3
crabgrass; [4]
  Plant response rating, Crabgrass: 4
crabgrass; [5]
  Crabgrass plant response rating: 0
crabgrass; [6]
  Crabgrass plant response rating: 0
crabgrass; Rate 250 g/ha, Postemergence
  Plant response rating (0 to 10; 0 is no effect, 10 is complete control), Crabgrass: 2
crabgrass; [7]
  Crabgrass plant response rating: 3
pigweed; [1]
  Redroot pigweed plant response rating: 0
pigweed; [2]
  Redroot pigweed plant response rating (0 to 10 scale): 0
pigweed; [3]
  Redroot pigweed plant response rating: 2
pigweed; [4]
  Plant response rating, Redroot pigweed: 8
pigweed; [5]
  Redroot pigweed plant response rating: 0
pigweed; [6]
  Redroot pigweed plant response rating: 0
pigweed; Rate 250 g/ha, Postemergence
  Plant response rating (0 to 10; 0 is no effect, 10 is complete control), Redroot pigweed: 0
pigweed; [7]
  Redroot pigweed plant response rating: 0
bamyardgrass; [8]
  Barnyardgrass plant response rating: 0
bamyardgrass; [9]
  Barnyardgrass plant response rating: 0
bamyardgrass; [10]
  Barnyardgrass plant response rating: 2
bamyardgrass; [11]
  Barnyardgrass plant response rating: 7
soybean; [1]
  Soybean plant response rating: 0
soybean; [2]
  Soybean plant response rating (0 to 10 scale): 0
soybean; [3]
  Soybean plant response rating: 0
soybean; [4]
  Plant response rating, Soybean: 0
soybean; [5]
  Soybean plant response rating: 1
soybean; [6]
  Soybean plant response rating: 2
soybean; Rate 250 g/ha, Postemergence
  Plant response rating (0 to 10; 0 is no effect, 10 is complete control), Soybean: 2
soybean; [7]
  Soybean plant response rating: 5
rape; [1]
  Rape plant response rating: 0
rape; [2]
  Rape plant response rating (0 to 10 scale): 0
rape; [3]
  Rape plant response rating: 0
rape; [4]
  Plant response rating, Rape: 2
rape; [5]
  Rape plant response rating: 0
rape; [6]
  Rape plant response rating: 0
rape; Rate 250 g/ha, Postemergence
  Plant response rating (0 to 10; 0 is no effect, 10 is complete control), Rape: 0
rape; [7]
  Rape plant response rating: 2
Duck salad; [8]
  Ducksalad plant response rating: 0
Duck salad; [9]
  Ducksalad plant response rating: 0
Duck salad; [10]
  Ducksalad plant response rating: 0
Duck salad; [11]
  Ducksalad plant response rating: 2
Wild oat; [1]
  Wild oats plant response rating: 0
Wild oat; [3]
  Wild oats plant response rating: 0
Wild oat; [4]
  Plant response rating, Wild oats: 0
Wild oat; [5]
  Wild oats plant response rating: 0
Wild oat; [6]
  Wild oats plant response rating: 0
Wild oat; Rate 250 g/ha, Postemergence
  Plant response rating (0 to 10; 0 is no effect, 10 is complete control), Wild oats: 0
Sugar beet; [1]
  Sugarbeets plant response rating: 0
Sugar beet; [2]
  Sugarbeets plant response rating (0 to 10 scale): 0
Sugar beet; [3]
  Sugarbeets plant response rating: 0
Sugar beet; [4]
  Plant response rating, Sugarbeets: 0
Sugar beet; [5]
  Sugarbeets plant response rating: 0
Sugar beet; [6]
  Sugarbeets plant response rating: 0
Sugar beet; Rate 250 g/ha, Postemergence
  Plant response rating (0 to 10; 0 is no effect, 10 is complete control), Sugarbeets: 0
Sugar beet; [7]
  Sugarbeets plant response rating: 2
cocklebur; [1]
  Cocklebur plant response rating: 0
cocklebur; [2]
  Cocklebur plant response rating (0 to 10 scale): 0
cocklebur; [3]
  Cocklebur plant response rating: 0
cocklebur; [4]
  Plant response rating, Cocklebur: 0
cocklebur; [5]
  Cocklebur plant response rating: 0
cocklebur; [6]
  Cocklebur plant response rating: 0
cocklebur; Rate 250 g/ha, Postemergence
  Plant response rating (0 to 10; 0 is no effect, 10 is complete control), Cocklebur: 0
cocklebur; [7]
  Cocklebur plant response rating: 3
velvetleaf; [1]
  Velvetleaf plant response rating: 0
velvetleaf; [3]
  Velvetleaf plant response rating: 0
velvetleaf; [4]
  Plant response rating, Velvetleaf: 5
velvetleaf; [5]
  Velvetleaf plant response rating: 0
velvetleaf; [6]
  Velvetleaf plant response rating: 1
velvetleaf; Rate 250 g/ha, Postemergence
  Plant response rating (0 to 10; 0 is no effect, 10 is complete control), Velvetleaf: 1
